# Source: patent US11389415B2, “Methods of regulating cannabinoid receptor activity-related disorders and diseases” (The United States of America as represented by the …, priority 2012, dated 2022)
# pIC50: −log10 of the molar value.
# Tests used:
# GPR55 = GPR55 (Homo sapiens, UniProt Q9Y2T6); assay: Cellular uptake of TocriFluor T1117 in HepG2 cells; assay type: cell-based; design: host or cells: HepG2 hepatocarcinoma cells
# rat C6 glioma cells = assay: 3H-Thymidine incorporation in rat C6 glioma cells; assay type: cell-based; settings: 24 hours
# Description: Cell culture. The rat-derived C6 glioma cell line was obtained from the American Type Culture Collection (Manassas, Va.). The cells were routinely maintained in DMEM supplemented with L-glutamine, 1% penicillin/streptomycin solution, and 10% FBS in a humidified CO2 incubator at 37° C.
# 3H-Thymidine incorporation. C6 glioma cells were seeded in 12-well plates at ˜5×10^4 cells/well and incubated for 24 hours followed by a second 24-hour incubation with various concentrations of MNF. Radiolabeled thymidine (10 Ci/mmol; PerkinElmer Life and Analytical Sciences, Waltham, Mass.) was added at 1 μCi per well for 16 hours and its incorporation into DNA was then measured. Each treatment group was performed in triplicate and three independent studies were carried out.
# HepG2 cells = assay: Cell cycle analysis by flow cytometry in HepG2 cells; assay type: cell-based, human; settings: HepG2, 1 μM
# Description: Cell Cycle Analysis. Cell cycle distributions were performed by flow cytometry on propidium iodide-stained nuclei prepared by the NIM technique. DNA histograms of at least 10,000 cells acquired on a Becton-Dickinson FACScanto II (BD Biosciences, San Jose, Calif.) were deconvoluted using the Multicycle program (Phoenix Flow Systems) for estimates of the percentage of cells in the G0/1, S, and G2+M phases of the cell cycle. Debris and doublets were removed from the analysis by software algorithms.
# cyclin A and cyclin D1 = assay: Western blot of cell cycle regulator proteins (cyclin A, cyclin D1), C6 glioma; design: species or system mouse; settings: C6 glioma in vivo and in vitro
# Text: Western Blot Analysis. Frozen tumor tissues were lysed with radioimmune precipitation buffer containing EGTA and EDTA (Boston BioProducts, Ashland, Mass.) supplemented with a phosphatase inhibitor cocktail (EMB-Calbiochem), and protease inhibitor cocktail (Sigma-Aldrich), according to standard protocols. Equal amounts of protein from the clarified lysates were separated by SDS-polyacrylamide gel electrophoresis under reducing conditions (Invitrogen, Carlsbad, Calif.), and electrotransferred onto polyvinylidene difluoride membranes using the iBlot system (Invitrogen). Western blots were performed according to standard methods, which involved blocking the membrane in 5% non-fat milk, followed by sequential incubation method with the primary antibody of interest and secondary antibody conjugated with the enzyme horseradish peroxidase. The detection of immunoreactive bands was performed by chemiluminescence using the ECL Plus Western Blotting Detection System (GE Healthcare, Piscataway, N.J.). Quantitation of the protein bands was done by volume densitometry using ImageJ software (National Institutes of Health, Bethesda, Md.). […]
# Sequence of GPR55 (Q9Y2T6 whole entry): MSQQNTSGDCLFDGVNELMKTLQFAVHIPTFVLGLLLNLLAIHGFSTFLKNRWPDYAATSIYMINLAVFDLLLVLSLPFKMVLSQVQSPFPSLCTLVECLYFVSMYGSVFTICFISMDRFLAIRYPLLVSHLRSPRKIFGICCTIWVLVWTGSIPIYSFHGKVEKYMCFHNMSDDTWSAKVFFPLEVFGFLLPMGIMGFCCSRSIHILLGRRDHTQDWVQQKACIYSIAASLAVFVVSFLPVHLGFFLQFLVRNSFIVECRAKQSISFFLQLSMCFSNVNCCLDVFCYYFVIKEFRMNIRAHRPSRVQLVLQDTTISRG
structure (smiles),measurement,setting,value
"COc1ccc(C[C@@H](C)NC[C@H](O)c2cc(O)cc(O)c2)c2ccccc12 [(R,R′)-MNF, (R,R′)-4′-methoxy-1-naphthylfenoterol]",reduction in T1117 incorporation,"GPR55; HepG2, MNF alone (1 μM), 10 nM T1117",~70%
same,reduction in T1117 incorporation as compared to vehicle-treated cells,"GPR55; HepG2, MNF with AM251 added either before or after the 30-minutes MNF treatment",~6.8 fold
same,T1117 uptake,"GPR55; HepG2, MNF 1 μM or AM251 10 μM for 1 hour, then T1117 0.1 μM",dramatically reduced
same,inhibition of C6 cell growth / reduction in mitogenesis,rat C6 glioma cells; 20 nM,54.3±1.2%
same,pIC50,"rat C6 glioma cells; then [3H]-thymidine 16 hours, read-out: IC50, growth inhibition of rat C6 glioma cell line",~9.00
same,G2/M-phase cell population,HepG2 cells; after 6 h (control 13.8±1.1%),10.2±0.9%
same,S-phase cell population,HepG2 cells; after 6 h (control 34.7±0.3%),34.1±0.9%
same,G2/M-phase cell population,HepG2 cells; after 12 h,14.6±1.8%
same,S-phase cell population,HepG2 cells; after 12 h,13.7±1.2%
same,G2/M-phase cell population,HepG2 cells; after 24 h,8.9±1.6%
same,S-phase cell population,HepG2 cells; after 24 h,24.6±4.2%
same,"number of sub-G1 events, maximum",HepG2 cells; by 12 hours,21.5±0.7%
same,expression of cell cycle regulator proteins,cyclin A and cyclin D1,marked reduction in the expression of cell cycle regulator proteins
